The target in series [1] is T1, Cytochrome P450 11B2, mitochondrial (Homo sapiens, UniProt P19099).
T1 sequence (P19099 whole entry): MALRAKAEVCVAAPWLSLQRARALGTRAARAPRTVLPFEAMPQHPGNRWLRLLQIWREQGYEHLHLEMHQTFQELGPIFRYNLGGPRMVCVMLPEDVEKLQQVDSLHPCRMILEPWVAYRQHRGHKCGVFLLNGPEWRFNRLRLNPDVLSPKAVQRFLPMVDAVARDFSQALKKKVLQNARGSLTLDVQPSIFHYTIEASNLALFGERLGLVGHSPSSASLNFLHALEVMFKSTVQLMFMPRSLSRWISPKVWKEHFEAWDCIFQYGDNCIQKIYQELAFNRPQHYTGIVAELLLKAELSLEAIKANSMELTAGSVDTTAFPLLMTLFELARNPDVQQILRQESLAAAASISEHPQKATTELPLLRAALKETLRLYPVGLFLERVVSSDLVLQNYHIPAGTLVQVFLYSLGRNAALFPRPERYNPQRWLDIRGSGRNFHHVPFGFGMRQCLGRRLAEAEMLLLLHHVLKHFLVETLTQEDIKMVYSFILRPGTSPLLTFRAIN
Nature of the series: Inhibition of human CYP11B2 expressed in hamster fibroblasts using deoxycorticosterone as substrate.

Series [2] concerns the target T2, Cytochrome P450 11B1, mitochondrial (Homo sapiens, UniProt P15538).
T2 sequence (P15538 whole entry): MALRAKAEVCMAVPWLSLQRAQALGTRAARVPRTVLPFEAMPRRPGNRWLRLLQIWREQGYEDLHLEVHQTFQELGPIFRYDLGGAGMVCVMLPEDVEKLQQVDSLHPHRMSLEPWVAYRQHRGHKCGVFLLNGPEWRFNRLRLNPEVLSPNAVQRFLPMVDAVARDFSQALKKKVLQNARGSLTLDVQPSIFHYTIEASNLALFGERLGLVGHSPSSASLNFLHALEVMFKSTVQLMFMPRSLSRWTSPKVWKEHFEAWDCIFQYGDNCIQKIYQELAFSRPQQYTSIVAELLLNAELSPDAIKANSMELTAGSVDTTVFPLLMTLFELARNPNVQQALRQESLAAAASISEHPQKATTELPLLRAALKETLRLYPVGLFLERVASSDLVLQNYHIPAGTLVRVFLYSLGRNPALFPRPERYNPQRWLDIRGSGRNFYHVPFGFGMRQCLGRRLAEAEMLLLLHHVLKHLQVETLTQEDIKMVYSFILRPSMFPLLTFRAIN
The series is described as follows: Inhibition of human CYP11B1 expressed in hamster fibroblasts using deoxycorticosterone as substrate.

Series [3] is filed under the species Homo sapiens. Nature of the series: Selectivity index, ratio of IC50 for human CYP11B1 expressed in hamster fibroblasts to ratio of IC50 human CYP11B2 expressed in hamster fibroblasts.
For series [4], the target named is T3, CYP11B1 (Homo sapiens, UniProt P15538).
T3 sequence (P15538 whole entry): T2 sequence (P15538 whole entry)
Nature of the series: Inhibition of CYP11B1 (unknown origin).

For series [5], the species on record is Homo sapiens. The series is described as follows: Selectivity index, ratio of IC50 for CYP11B1 (unknown origin) to ratio of IC50 for CYP11B2 (unknown origin).
Series [6] in a line: Partition coefficient, log P of the compound. The conditions noted are these: octanol/water.
The nature of series [7]: Lipophilicity, log D of compound at pH 7.4. The following applies: buffer.
In series [8] the test system is Candida albicans. Nature of the series: Antifungal activity against Candida albicans. Type of series: functional.

≈ marks a conversion by molar mass, not a printed value.

By IC50 is commonly meant the point on the concentration scale where inhibition reaches its midpoint. A high value points to weaker potency. In the case of `CCC(=O)N1CCc2cc(-c3cccnc3)ccc21`, the IC50 amounted to 0.228 µM in series [1] and 4.74 µM in series [2]. For the same compound, the Ratio IC50 in series [3] amounted to 21.

`Cc1nnc2n1-c1c(F)cc(-c3cccnc3)cc1CC2` came in with an IC50 in series [4] of 17 µM. The Ratio IC50 in series [5] came out at 272.

For `Fc1cc2c(cc1-c1cccnc1)CCc1nncn1-2`, half-maximal inhibition in series [4] (IC50) required 7.9 µM. For the same compound, in series [5], the Ratio IC50 stood at 32.

One may read the logP as the decadic logarithm of the partition coefficient of the neutral form, usually between octanol and water. A high value points to a more lipophilic compound. As a reminder, the logD is lipophilicity at a set pH, counting ionised and neutral species. A high value points to higher lipophilicity. By MIC90 is commonly meant an inhibitory concentration at the 90% level, which refers to growth in some studies and to a panel of isolates in others. High values mean weaker potency, low ones greater potency. In turn, `Clc1ccccc1C(c1ccccc1)(c1ccccc1)n1ccnc1` [CLOTRIMAZOLE] displayed a logP in series [6] of 5.05. In addition, the logD in series [7] was determined as 5.05. This compound also yielded an MIC90 in series [8] of 1 µg/mL (≈ 2.9 µM).

Regarding `Clc1ccc(COC(Cn2ccnc2)c2ccc(Cl)cc2Cl)c(Cl)c1` (stereo not given) [MICONAZOLE], the MIC90 in series [8] is 0.5 µg/mL (≈ 1.2 µM).

`CC(=O)N1CCN(c2ccc(OCC3COC(Cn4ccnc4)(c4ccc(Cl)cc4Cl)O3)cc2)CC1` (stereo not given) [KETOCONAZOLE]: in series [8], the MIC90 amounted to 0.25 µg/mL (≈ 0.47 µM).

Turning to `Cc1nnc2n1-c1cc(F)c(-c3cccnc3)cc1CC2`, the IC50 in series [4] was determined as 12.6 µM. In series [5], the Ratio IC50 came to 96.

`Clc1ccc(COC(Cn2ccnc2)c2ccc(Cl)cc2Cl)cc1` (stereo not given) [ECONAZOLE] yielded a logP in series [6] of 5.25. For the same compound, in series [7], the logD was 5.25. Also, the MIC90 in series [8] was determined as 2 µg/mL (≈ 5.24 µM).

On to `Fc1cc(-c2cccnc2)cc2c1-n1cnnc1CC2`, for which it took 16.1 µM to reach half-maximal inhibition in series [4] (IC50). For the same compound, in series [5], the Ratio IC50 came to 94.

On to `OC(Cn1cncn1)(Cn1cncn1)c1ccc(F)cc1F` [FLUCONAZOLE], for which, in series [8], the MIC90 worked out at 1 µg/mL (≈ 3.27 µM).

Values taken from ChEMBL document CHEMBL4433254 (Bioorg Med Chem Lett, 2019).
